{"source": "patent US12310957B2", "about": "“Bowel cleansing composition” (priority 2013, dated 2025)", "origin": "cited, not measured here", "system": "patients undergoing colonoscopy", "conditions": "Nunes et al. 2008, scale proposed by the authors"}
{"smiles": "OC[C@@H](O)[C@@H](O)[C@H](O)[C@H](O)CO", "note": "[mannitol]", "values": [{"measurement": "rate of adequate bowel cleansing", "result": 75, "unit": "%"}]}
